Common to all, as to format: in vivo
Series [1] relates to German cockroaches (Blattella germanica). Description: Test Example 11: control test against German cockroaches, spray in chamber. To be noted: adult German cockroaches; 1.5 mL sprayed; concentration [%]: isocycloseram 0.01, imiprothrin 0.01, permethrin 0.05, alone or mixed; 120 minutes after spraying. The method, then:
(§1) Next, the usefulness of the inventive composition for controlling pests will be indicated by Test Examples. In general, the control effect to be expected when treated with a mixture obtained by mixing given two or three types of active ingredient compounds is determined by the Colby's calculation equation represented by the following [Equation 1] and [Equation 2].
(§2) [formula] • P: moribund and mortal rates (%) when treated with an active ingredient compound X in the concentration of m [ppm] • Q: moribund and mortal rates (%) when treated with an active ingredient compound Y in the concentration of n [ppm] • EA: moribund and mortal rates (%) when treated with an active ingredient compound X in the concentration of m [ppm] and an active ingredient compound Y in the concentration of n [ppm] (hereinafter referred to as expected value A) […]
(§3) Regarding the synergistic effect of three types of the active ingredient compounds, in case where the moribund and mortal rates (%) when actually treated with a mixture obtained by mixing three types of the active ingredient compounds exceed the expected value A calculated by using the moribund and mortal rates (%) when actually treated with a mixture obtained by mixing two types of the active ingredient compounds among three types thereof, and the moribund and mortal rates (%) calculated when actually treated the remaining one type of the active ingredient compound, or the expected value B (%) calculated from the moribund and mortal rates (%) when actually treated with each of three types of the active ingredient compounds alone, it was determined that the synergistic effect exists. […]

Series [2] has the same test system. Description: Test Example 6: control test against German cockroaches, spray in chamber. To be noted: adult German cockroaches; 1.5 mL sprayed; concentration [%]: isocycloseram 0.05, imiprothrin 0.01, lambda-cyhalothrin 0.0025, alone or mixed; 60 minutes after spraying. The method, then:
as §1, §2, §3

Series [3] shares this test system. Description: Test Example 7: control test against German cockroaches, spray in chamber. To be noted: adult German cockroaches; 1.5 mL sprayed; concentration [%]: isocycloseram 0.05, imiprothrin 0.01, cypermethrin 0.01, alone or mixed; 120 minutes after spraying. The method, then:
as §1, §2, §3

Series [4] has the same test system. Description: Test Example 2: control test against German cockroaches, spray in chamber. To be noted: adult German cockroaches; 1.5 mL sprayed; concentration [%]: nicofluprole 0.01, imiprothrin 0.01, cypermethrin 0.01, alone or mixed; 120 minutes after spraying. The method, then: as §1, §2, §3
Series [5] shares this test system. Briefly: Test Example 5: control test against German cockroaches, spray in chamber. To be noted: adult German cockroaches; 1.5 mL sprayed; concentration [%]: nicofluprole 0.01, imiprothrin 0.01, cyfluthrin 0.0002, alone or mixed; 45 minutes after spraying. The source says:
(§4) Next, the usefulness of the inventive composition for controlling pests will be indicated by Test Examples.
(§5) (hereinafter referred to as expected value A)
(§6) (hereinafter referred to as expected value B)
(§7) In a plastic cup (diameter: 12.4 cm, height: 10.2 cm) lined with a filter paper, ten adult German cockroaches (Blattella germanica) (five males and five females each) or eleven adult German cockroaches were released, and the plastic cup was placed in the center of the bottom of a box-shaped chamber (46 cm×46 cm×70 cm in height). From the height of 60 cm, 1.5 mL of each of formulations prepared by dissolving a single agent of any one of nicofluprole, imiprothrin and cyfluthrin, or a mixed agent of two or more thereof in a mixture of isopropyl alcohol and Isopar M at a mixing ratio of 1:9 was sprayed under a spray pressure of 0.041 MPa. After a lapse of 45 minutes from spraying, the number of dead and moribund individuals was examined, and moribund and mortal rates (%) were determined by the above equation 3. The test was performed through two replicates. Dead individuals are completely immobile individuals, and moribund individuals are individuals who cannot get up when turned on their backs.

For series [6] the test system is unchanged. Description: Test Example 8: control test against German cockroaches, spray in chamber. To be noted: adult German cockroaches; 1.5 mL sprayed; concentration [%]: nicofluprole 0.01, imiprothrin 0.01, phenothrin 0.1, alone or mixed; 45 minutes after spraying. The method, then:
as §1, §2, §3

Series [7] has the same test system. Briefly: Test Example 10: control test against German cockroaches, spray in chamber. To be noted: adult German cockroaches; 1.5 mL sprayed; concentration [%]: nicofluprole 0.01, imiprothrin 0.01, permethrin 0.05, alone or mixed; 60 minutes after spraying. The method, then:
as §1, §2, §3

For series [8] the test system is unchanged. Description: Test Example 4: control test against German cockroaches, spray in chamber. To be noted: adult German cockroaches; 1.5 mL sprayed; concentration [%]: nicofluprole 0.01, imiprothrin 0.01, deltamethrin 0.0002, alone or mixed; 45 minutes after spraying. The method, then: as §1, §2, §3
The test system is the same in series [9]. Briefly: Test Example 9: control test against German cockroaches, spray in chamber. To be noted: adult German cockroaches; 1.5 mL sprayed; concentration [%]: broflanilide 0.02, imiprothrin 0.01, permethrin 0.05, alone or mixed; 420 minutes after spraying.
Text: as §4, §5, §6
as §7, with “each)” for “each) or eleven adult German cockroaches”, “broflanilide,” for “nicofluprole,”, “permethrin,” for “cyfluthrin,”, “420” for “45”

Consider `CCN1OCC(NC(=O)c2ccc(C3=NOC(c4cc(Cl)c(F)c(Cl)c4)(C(F)(F)F)C3)cc2C)C1=O` (centres unmarked) [Isocycloseram, isocycloseram], for which the “Moribund and mortal rates [%] after 120 minutes” value in [1] is on record as 5%; in series [3] it was 10%. Moreover, in [2], the “Moribund and mortal rates [%] after 60 minutes” value stood at 5%.
With `CN(C(=O)c1cc(-c2cnn(-c3c(Cl)cc(C(F)(C(F)(F)F)C(F)(F)F)cc3Cl)c2)cnc1Cl)C1CC1` [Nicofluprole, nicofluprole], in series [4], the “Moribund and mortal rates [%] after 120 minutes” value came to 0%. For the same compound, the “Moribund and mortal rates [%] after 45 minutes” value in series [5], in series [6] and in [8] was 0% throughout. For the same compound, the “Moribund and mortal rates [%] after 60 minutes” value in [7] turned out to be 0%.
Take `CC1(C)C(C=C(Cl)Cl)C1C(=O)OCc1cccc(Oc2ccccc2)c1` (centres unmarked) [Permethrin, permethrin]: the “Moribund and mortal rates [%] after 120 minutes” value in series [1] is listed as 5%. Also, the “Moribund and mortal rates [%] after 420 minutes” value in series [9] stood at 5%. Further, the “Moribund and mortal rates [%] after 60 minutes” value in series [7] was determined as 5%.

These data come from patent publication US20240373851A1, “PEST CONTROL COMPOSITION AND PEST CONTROL METHOD” (SUMITOMO CHEMICAL COMPANY, LIMITED, priority 2021, published 2024).
